Data as given in patent US5225528A, “Cyclic hexapeptide oxytocin antagonists” (priority 1990, dated 1993).
Like-named read-outs stand apart in the source and are kept apart here. Numbered stars: 1 amine (or outer) side, 2 acyl side, 3 side chain; on linkers, the order of the positions; unused ones are H or OH. Square brackets hold non-standard residues; d marks the D form. Peptide text beside a SMILES is read from it. * marks the point of attachment. X2 = O=C(OCc1ccccc1)N1CCN([*:1])[C@H](C(=O)[*:2])C1; NH(2-(imidazol-4-yl)ethyl) = c1ncc(CCN*)[nH]1; d2Nal = N[C@H](Cc1ccc2ccccc2c1)C(=O)O; dNMeY = CN[C@H](Cc1ccc(O)cc1)C(=O)O; NMeI = CC[C@H](C)[C@H](NC)C(=O)O; dNMeF = CN[C@H](Cc1ccccc1)C(=O)O; Pip = O=C(O)[C@@H]1CCCCN1; dPip = O=C(O)[C@H]1CCCCN1; Orn = NCCC[C@H](N)C(=O)O; dNMeA = CN[C@H](C)C(=O)O; Cbz = O=C(OCc1ccccc1)*; Boc = CC(C)(C)OC(=O)*; Bn = c1ccc(C*)cc1; tBu = CC(C)(C)*

What was measured:
AVP-V1 sites = molecular target: T1, AVP-V1 sites (Rattus norvegicus, UniProt P30560); assay: [^3 H]AVP binding to crude membrane preparation of male rat liver (AVP-V1 sites)
T1 construct: crude membrane preparation of male rat liver (AVP-V1 sites); from tissue; host or cells: male rat liver, crude membranes
T1 sequence (P30560 whole entry): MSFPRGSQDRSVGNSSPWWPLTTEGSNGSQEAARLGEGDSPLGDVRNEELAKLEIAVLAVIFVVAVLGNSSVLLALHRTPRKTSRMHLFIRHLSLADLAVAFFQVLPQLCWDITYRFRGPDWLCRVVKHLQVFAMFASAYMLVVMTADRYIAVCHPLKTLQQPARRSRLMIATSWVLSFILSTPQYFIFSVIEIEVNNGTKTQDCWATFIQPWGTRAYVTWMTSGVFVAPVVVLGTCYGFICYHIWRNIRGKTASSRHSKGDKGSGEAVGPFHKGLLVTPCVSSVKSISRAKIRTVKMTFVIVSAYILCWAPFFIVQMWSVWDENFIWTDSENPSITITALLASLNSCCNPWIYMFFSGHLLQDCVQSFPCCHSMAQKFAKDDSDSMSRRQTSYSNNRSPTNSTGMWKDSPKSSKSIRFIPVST
Experimental: (§1) Nonspecific binding (5-10% of the total binding) was determined using 10 μM unlabeled AVP, and the binding reaction was terminated by filtration as described above for the [^3 H]OT binding assay.

uterine OT receptors = molecular target: T2, uterine OT receptors (Rattus norvegicus, UniProt P70536); assay: [^3 H]OT binding to uterine OT receptors, crude membrane preparation of uteri from DES-treated rats; conditions: for inhibition at 0.1 µM: @ 100 (nM); for inhibition at 1 µM: @ 1,000 (nM)
T2 construct: from tissue; host or cells: uterus of DES-treated rats, crude membranes
T2 sequence (P70536 1-388): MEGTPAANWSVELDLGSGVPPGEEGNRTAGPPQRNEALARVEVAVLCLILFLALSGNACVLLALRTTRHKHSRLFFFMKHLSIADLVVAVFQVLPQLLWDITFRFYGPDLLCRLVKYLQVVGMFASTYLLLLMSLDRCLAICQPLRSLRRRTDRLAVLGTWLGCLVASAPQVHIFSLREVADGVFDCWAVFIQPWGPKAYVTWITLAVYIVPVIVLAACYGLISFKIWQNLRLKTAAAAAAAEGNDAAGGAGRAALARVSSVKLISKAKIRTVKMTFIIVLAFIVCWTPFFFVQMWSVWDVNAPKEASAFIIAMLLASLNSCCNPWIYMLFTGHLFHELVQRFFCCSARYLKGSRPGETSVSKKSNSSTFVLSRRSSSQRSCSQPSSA
Experimental: Competition studies were conducted at equilibrium (60 minutes; 22° C.) using 1 nM [^3 H]OT in the following assay buffer: 50 mM Tris-HCl, 5 mM MgCl2, and 0.1% BSA, pH 7.4.

AVP-V2 sites = molecular target: T3, AVP-V2 sites (Rattus norvegicus, UniProt Q00788); assay: [^3 H]AVP binding to crude membrane preparation of male rat kidney medulla (AVP-V2 sites)
T3 construct: male rat liver (AVP-V1 sites) or kidney medulla (AVP-V2 sites); from tissue; host or cells: male rat kidney medulla, crude membranes
T3 sequence (Q00788 whole entry): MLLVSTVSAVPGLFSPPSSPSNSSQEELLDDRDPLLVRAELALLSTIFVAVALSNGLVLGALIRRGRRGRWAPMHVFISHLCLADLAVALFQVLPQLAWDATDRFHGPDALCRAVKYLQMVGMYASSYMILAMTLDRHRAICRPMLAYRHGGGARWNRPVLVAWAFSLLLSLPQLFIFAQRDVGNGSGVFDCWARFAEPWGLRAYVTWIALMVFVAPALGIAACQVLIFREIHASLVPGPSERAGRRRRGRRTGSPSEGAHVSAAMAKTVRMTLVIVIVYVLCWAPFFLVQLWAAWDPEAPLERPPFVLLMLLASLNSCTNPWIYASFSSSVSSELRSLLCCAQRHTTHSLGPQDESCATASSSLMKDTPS
Experimental: as §1

[1] = Receptor Binding Results IC50 (nM) [^3 H]-AVP-V1
[2] = Receptor Binding Results IC50 (nM) [^3 H]OT
[3] = rat kidney medulla membranes, 2 nM [^3 H]AVP, read-out: Receptor Binding Results IC50 (nM) [^3 H]-AVP-V2
[4] = 1 h, read-out: [^3 H]OT: percent inhibition of radioligand at the given concentration
[5] = read-out: Receptor Binding Results IC50 (nM) [^3 H]-AVP-V1
[6] = rat uterus membranes, 1 nM [^3 H]OT, read-out: Receptor Binding Results IC50 (nM) [^3 H]OT
[7] = read-out: Receptor Binding Results IC50 (nM) [^3 H]-AVP-V2
[8] = Receptor Binding Results IC50 (nM) [^3 H]-AVP-V2

| SMILES | IC50 (AVP-V1 sites; [1]) | IC50 (AVP-V2 sites; [3]) | IC50 (uterine OT receptors; [6]) | other results |
| --- | --- | --- | --- | --- |
| CC[C@H](C)[C@@H]1NC(=O)[C@@H](Cc2ccccc2)NC(=O)[C@@H]2CCCCN2C(=O)[C@@H](Cc2ccccc2)N(C)C(=O)[C@@H]2CCCCN2C(=O)[C@H]2CCCCN2C1=O [Example 108, c-[D-phenylalanyl-L-isoleucyl-D-pipecolyl-L-pipecolyl-N-methyl-D-phenylalanyl-L-pipecolyl]] (cyclo(I[dPip][Pip][dNMeF][Pip][dF])) | 10000 nM | 10000 nM | – | IC50 (uterine OT receptors; [2]): 655 nM |
| CC[C@H](C)[C@@H]1NC(=O)[C@@H](Cc2ccccc2)NC(=O)[C@@H]2CCCN2C(=O)[C@@H](Cc2ccc(OCc3ccccc3)cc2)N(C)C(=O)[C@@H]2CCCCN2C(=O)[C@H]2CCCCN2C1=O [Example 28, Cyclo[D-phenylalanyl-L-isoleucyl-D-pipecolyl-L-pipecolyl-D-(N^α methyl-O-Benzyl)-tyrosyl-L-prolyl]] (cyclo(I[dPip][Pip][dNMeY](Bn)P[dF])) | > 10000 nM | 10000 nM | – | inhibition at 0.1 µM (uterine OT receptors; [4]): 28% |
| CC[C@H](C)[C@@H]1NC(=O)[C@@H](Cc2c[nH]c3ccccc23)NC(=O)[C@@H]2CCCN2C(=O)[C@@H](Cc2c[nH]cn2)NC(=O)[C@@H]2CCCCN2C(=O)[C@H]2CCCCN2C1=O [Example 17, C-[D-tryptophanyl-L-isolelucyl-D-pipecolyl-L-pipecolyl-D-histidyl-L-prolyl]] (cyclo(I[dPip][Pip][dH]P[dW])) | – | 5400 nM | – | IC50 (AVP-V1 sites; [5]): 8200 nM; IC50 (uterine OT receptors; [2]): 14 nM |
| CC[C@H](C)[C@@H]1NC(=O)[C@@H](C)N(C)C(=O)[C@@H]2CCCN2C(=O)[C@@H](Cc2ccccc2)N(C)C(=O)[C@@H]2CCCCN2C(=O)[C@H]2CCCCN2C1=O [Example 167, c-[N-Me-D-Alanyl-L-isoleucyl-D-pipecolyl-L-pipecolyl-N-Me-D-phenylalanyl-L-prolyl]] (cyclo(I[dPip][Pip][dNMeF]P[dNMeA])) | > 10000 nM | > 10000 nM | – | inhibition at 1 µM (uterine OT receptors; [4]): 5% |
| CC[C@H](C)[C@@H]1NC(=O)[C@@H](Cc2ccc(OC)cc2)NC(=O)[C@@H]2CCCN2C(=O)[C@@H](Cc2ccccc2)N(C)C(=O)[C@H](CCCCNC(=O)OC(C)(C)C)NC(=O)[C@H]2CCCCN2C1=O [Example 149, c-[D-(O-Methyl)Tyrosyl-L-isoleucyl-D-pipecolyl-L-(N-t-butyloxycarbonyl)lysyl-D-(N-methyl)phenylalanyl-L-prolyl]] (cyclo(I[dPip]K(Boc)[dNMeF]P[dY](Me))) | > 10000 nM | 10000 nM | – | inhibition at 0.1 µM (uterine OT receptors; [4]): 53% |
| CC[C@H](C)[C@@H]1NC(=O)[C@@H](Cc2ccc3ccccc3c2)NC(=O)[C@@H]2CCCN2C(=O)[C@@H](Cc2c[nH]cn2)NC(=O)[C@@H]2CN(C(=O)OCc3ccccc3)CCN2C(=O)[C@H]2CCCCN2C1=O [Example 158, c-[D-2-Naphthylalanyl-L-isoleucyl-D-pipecolyl-L-piperazin-2-yl-(4-carbobenzyloxy)-D-histidyl-L-prolyl]] (cyclo(I[dPip][X2][dH]P[d2Nal])) | > 1000 nM | – | – | inhibition at 0.01 µM (uterine OT receptors; 1 h, @ 10 (nM), read-out: [^3 H]OT: percent inhibition of radioligand at the given concentration): 60%; inhibition at 1 µM (AVP-V2 sites; 0.5 h, @ 1,000 (nM), read-out: [^3 H]-AVP-V2: percent inhibition of radioligand at the given concentration): 68% |
| CC[C@H](C)[C@@H]1NC(=O)[C@@H](Cc2ccccc2)NC(=O)[C@@H]2CCCN2C(=O)[C@@H](Cc2c[nH]c3ccccc23)NC(=O)[C@@H]2CCCCN2C(=O)[C@H]2CCCCN2C1=O [Example 25, Cyclo[D-phenylalanyl-L-isoleucyl-D-pipecolyl-L-pipecolyl-D-trytophanyl-L-prolyl]] (cyclo(I[dPip][Pip][dW]P[dF])) | – | – | 120 nM | IC50 (AVP-V1 sites; [5]): 3000 nM; IC50 (AVP-V2 sites; [7]): 3900 nM |
| CC[C@H](C)[C@@H]1NC(=O)[C@@H](Cc2ccccc2)NC(=O)[C@@H]2CCCN2C(=O)[C@@H](Cc2ccccc2)N(C)C(=O)[C@H](CC(=O)NCCc2c[nH]cn2)NC(=O)[C@H]2CCCCN2C1=O [Example 120, c-[D-Phenylalanyl-L-isoleucyl-D-pipecolyl-N^β -(imidazolylethyl)-L-asparagyl-N-methyl-D-phenylalanyl-L-prolyl]] (cyclo(D(NH(2-(imidazol-4-yl)ethyl))[dNMeF]P[dF]I[dPip])) | 10000 nM | 10000 nM | 120 nM | – |
| CC[C@H](C)[C@H]1C(=O)N2CCCC[C@@H]2C(=O)N2CCCC[C@H]2C(=O)N(C)[C@H](Cc2ccccc2)C(=O)N2CCC[C@H]2C(=O)N[C@H](Cc2ccccc2)C(=O)N1C [Example 105, c-[D-Phenylalanyl-N-methyl-L-isoleucyl-D-pipecolyl-L-pipecolyl-N-methyl-D-phenylalanyl-L-prolyl]] (cyclo([NMeI][dPip][Pip][dNMeF]P[dF])) | > 10000 nM | > 10000 nM | > 10000 nM | – |
| CC[C@H](C)[C@@H]1NC(=O)[C@@H](Cc2ccccc2)NC(=O)[C@@H]2CCCN2C(=O)[C@@H](Cc2ccccc2)N(C)C(=O)[C@@H](C)N(C)C(=O)[C@H]2CCCCN2C1=O [Example 6, Cyclo[D-phenyalanyl-L-isoleucyl-D-pipecolyl-L-(N^α -methyl)alanyl-D-(N^α Methyl)phenylanyl-L-prolyl]] (cyclo([dF]I[dPip][dNMeA][dNMeF]P)) | > 10000 nM | > 10000 nM | 1800 nM | – |
| CC[C@H](C)[C@@H]1NC(=O)[C@@H](Cc2c[nH]c3ccccc23)NC(=O)[C@@H]2CCCN2C(=O)[C@@H](Cc2ccccc2)N(C)C(=O)[C@H](CCCN)NC(=O)[C@H]2CCCCN2C1=O [Example 40, Cyclo[D-tryptophanyl-L-isoleucyl-D-pipecolyl-L-ornithyl-D-(N^α Methyl)phenylalanyl-L-prolyl]] (cyclo(I[dPip][Orn][dNMeF]P[dW])) | > 1000 nM | – | – | inhibition at 0.1 µM (uterine OT receptors; [4]): 59%; IC50 (AVP-V2 sites; [8]): > 1000 nM |
| CC[C@H](C)[C@@H]1NC(=O)[C@@H](Cc2c[nH]c3ccccc23)NC(=O)[C@@H]2CCCN2C(=O)[C@@H](Cc2ccccc2)N(C)C(=O)[C@H](CCCNC(=O)OCc2ccccc2)NC(=O)[C@H]2CCCCN2C1=O [Example 34, Cyclo[D-trytophanyl-L-isoleucyl-D-pipecolyl-L-(carbobenzyloxy)ornithyl-D-(N^α methyl)phenylalanyl-L-prolyl]] (cyclo(I[dPip][Orn](Cbz)[dNMeF]P[dW])) | > 1000 nM | 10000 nM | 100 nM | – |
| CCOc1ccc(C[C@H]2NC(=O)[C@@H]3CCCN3C(=O)[C@@H](Cc3ccccc3)N(C)C(=O)[C@@H]3CCCCN3C(=O)[C@H]3CCCCN3C(=O)[C@H]([C@@H](C)CC)NC2=O)cc1 [Example 122, c-[(O-Ethyl)-D-tyrosyl-L-isoleucyl-D-pipecolyl-L-pipecolyl-N-methyl-D-phenylalanyl-L-prolyl]] (cyclo(I[dPip][Pip][dNMeF]P[dY](Et))) | > 10000 nM | – | 130 nM | IC50 (AVP-V2 sites; [7]): 695 nM |
| CC[C@H](C)[C@@H]1NC(=O)[C@@H](Cc2ccc(OC(C)(C)C)cc2)NC(=O)[C@@H]2CCCN2C(=O)[C@@H](Cc2ccccc2)N(C)C(=O)[C@H](CCCCNC(=O)OC(C)(C)C)NC(=O)[C@H]2CCCCN2C1=O [Example 144, C-[D-(O-t-Butyl)Tyrosiniyl-L-isoleucyl-D-pipecolyl-L(N-t-butyloxycarbonyl)lysyl-D-(N-methyl)phenylalanyl-L-prolyl]] (cyclo(I[dPip]K(Boc)[dNMeF]P[dY](tBu))) | > 10000 nM | 10000 nM | – | inhibition at 1 µM (uterine OT receptors; [4]): 67% |
| CC[C@H](C)[C@@H]1NC(=O)[C@@H](Cc2ccccc2)NC(=O)[C@@H]2CCCN2C(=O)[C@@H](Cc2ccccc2)N(C)C(=O)[C@@H]2CCCCN2C(=O)[C@@H](C)N(C)C1=O [Example 8, Cyclo[D-Phenylalanyl-L-isoleucyl-D-(N^α methyl)alanyl-L-pipecolyl-D-(N^α methyl)phenylanyl-L-prolyl]] (cyclo(I[dNMeA][Pip][dNMeF]P[dF])) | > 10000 nM | > 10000 nM | 850 nM | – |
| CC[C@H](C)[C@@H]1NC(=O)[C@@H](Cc2ccccc2)NC(=O)[C@@H]2CCCN2C(=O)[C@@H](Cc2c[nH]cn2)NC(=O)[C@@H]2CN(C(=O)OCc3ccccc3)CCN2C(=O)[C@H]2CCCCN2C1=O [Example 81, c-[D-Phenylalanyl-L-isoleucinyl-D-pipecolyl-L-piperazin-2yl(4Cbz)-D-histidinyl-L-prolyl]] (cyclo(I[dPip][X2][dH]P[dF])) | > 1000 nM | – | 77 nM | IC50 (AVP-V2 sites; [8]): > 1000 nM |
